Measured values from ChEMBL document CHEMBL1134479 (J Med Chem, 2001).

Legend:
Estrogen receptor beta = Estrogen receptor beta (Homo sapiens, UniProt Q92731)
Description: In vitro inhibitory concentration against [3H]17-beta-estradiol binding to human estrogen receptor 2

Estrogen receptor [1] = molecular target: T1, Estrogen receptor (Homo sapiens, UniProt P03372); assay: In vitro inhibition of [3H]17-beta-estradiol binding to human estrogen receptor alpha
T1 sequence (P03372 whole entry): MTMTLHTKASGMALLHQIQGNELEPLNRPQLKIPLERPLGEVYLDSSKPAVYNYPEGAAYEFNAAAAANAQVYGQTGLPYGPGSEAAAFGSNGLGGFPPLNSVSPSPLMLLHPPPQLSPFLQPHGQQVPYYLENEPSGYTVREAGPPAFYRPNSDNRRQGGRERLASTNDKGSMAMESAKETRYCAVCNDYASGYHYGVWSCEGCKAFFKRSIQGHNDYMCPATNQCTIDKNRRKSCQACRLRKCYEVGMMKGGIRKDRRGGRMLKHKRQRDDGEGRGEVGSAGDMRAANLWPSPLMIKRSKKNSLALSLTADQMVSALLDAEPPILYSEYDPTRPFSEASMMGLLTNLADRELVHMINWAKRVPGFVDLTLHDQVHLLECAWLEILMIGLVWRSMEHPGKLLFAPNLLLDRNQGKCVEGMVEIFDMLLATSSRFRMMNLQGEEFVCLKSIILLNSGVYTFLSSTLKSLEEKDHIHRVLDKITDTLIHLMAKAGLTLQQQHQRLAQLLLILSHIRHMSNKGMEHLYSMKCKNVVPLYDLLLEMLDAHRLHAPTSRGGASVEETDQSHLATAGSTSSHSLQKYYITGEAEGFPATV

Estrogen receptor [2] = molecular target: T1, Estrogen receptor; assay: In vitro antagonist effect on estrogen receptor alpha transcriptional activation in MCF-7 cells against 10 pM 17-beta-estradiol

Estrogen receptor beta, sequence (Q92731 whole entry): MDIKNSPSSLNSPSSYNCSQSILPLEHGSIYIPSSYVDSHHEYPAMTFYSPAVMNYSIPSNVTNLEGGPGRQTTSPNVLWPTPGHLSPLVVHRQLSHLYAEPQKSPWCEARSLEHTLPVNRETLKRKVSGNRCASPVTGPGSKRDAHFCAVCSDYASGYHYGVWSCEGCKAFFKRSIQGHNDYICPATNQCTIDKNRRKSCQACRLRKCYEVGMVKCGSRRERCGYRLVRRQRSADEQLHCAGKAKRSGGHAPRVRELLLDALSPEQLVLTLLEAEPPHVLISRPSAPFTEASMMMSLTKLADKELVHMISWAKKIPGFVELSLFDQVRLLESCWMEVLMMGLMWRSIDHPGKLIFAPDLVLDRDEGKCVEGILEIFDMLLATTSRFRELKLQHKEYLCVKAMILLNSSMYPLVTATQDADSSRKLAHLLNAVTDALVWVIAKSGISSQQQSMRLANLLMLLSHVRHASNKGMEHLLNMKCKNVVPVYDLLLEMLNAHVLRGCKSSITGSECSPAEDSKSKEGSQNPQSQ

SMILES	IC50 (Estrogen receptor beta)	IC50 (Estrogen receptor [1])	IC50 (Estrogen receptor [2])
Cc1c(-c2ccc(O)cc2)n(CCCCCCN2CCCC2)c2ccc(O)cc12	242 nM	25 nM	69 nM
Cc1c(-c2ccc(O)cc2)n(Cc2ccc(OCCN3CCCCC3)cc2)c2ccc(O)cc12 [PIPENDOXIFENE]	40 nM		
